“Also recorded” adds a separate entry of the source.
Assays:
Sirt-1 3′UTR wt = test: Luciferase reporter assay, Sirt-1 3′UTR wt, HEK 293E cells; assay type: cell-based, human; details: Sirt-1 3′UTR wt reporter, 12 pmol pre-miR, 24 hours after transfection
Method: Human Sirt-1 3′UTR was amplified by PCR from the first nucleotide after stop codon to the last nucleotide before polyadenylation signal from human genomic DNA using the following primers:
The 1940 bp fragment (i.e. pSirT1 3′UTR wt), after SpeI restriction, was ligated to a compatible XbaI linearized pGL3 Control vector (Promega, Madison, Wis., USA).
(§1) 2×10^5 HEK 293E cells were seeded in 12 well dishes 24 hours before transfection. Cells were transfected using Lipofectamine 2000 (Invitrogen) with 100 ng of pGL3 vectors (i.e. with Sirt-1 3′UTR wt or Sirt-1 3′UTR miR-138 del), 12 pmol of pre-miR-138 or pre-miR scramble sequence (Ambion), and 10 ng of Renilla luciferase pRL-CMV vector. Luciferase activities of cellular extracts were measured 24 hours after transfection, by using a Dual Luciferase Reporter Assay System (Promega); light emission was measured over 10 seconds using an OPTOCOMP I luminometer. Efficiency of transfection was normalised using Renilla luciferase activity.
2×10^5 HEK 293E cells were seeded in 12 well dishes 24 hours before transfection. […] Luciferase activities of cellular extracts were measured 24 hours after transfection, by using a Dual Luciferase Reporter Assay System (Promega); light emission was measured over 10 seconds using an OPTOCOMP I luminometer. […]

[1] = tested on: Sirt-1 3′UTR miR-181a del; test: Luciferase reporter assay, Sirt-1 3′UTR miR-181a del, HEK 293E cells; assay type: cell-based, human; details: Sit 3′UTR miR-181a del reporter, 24 hours after transfection
Method: On the other hand, from this wild type sequence, the miR-181a predicted target site (7 bp, UGAAUGU) was deleted by PCR using the following overlapping primers:
Therefore, the SirT1 3′UTR miR-181a del is obtained.
as §1, with “miR-181a” for “miR-138”, “pre-miR-181a” for “pre-miR-138”

SirT1 protein = test: Western blot of SirT1 in transfected human keratinocytes; assay type: cell-based; details: versus scrambled sequence (Ctrl)
Method: Human primary keratinocytes were cultured in EpiLife medium with HKGS growth supplements (Cascade) and treated with CaCl2 1.2 mM in order to induce the differentiation process. Differentiated cells were harvested after 7 days of treatment for microRNA levels analysis. Human primary keratinocytes were transfected with human pre-miR-138, anti-miR-138 and Cy3-labeled negative control (Ambion, Texas, USA) using the SiPORT neoFX transfection agent (Ambion) according to manufacturer protocols. 16 hrs after transfection, the medium was removed and replaced with fresh medium.
(§2) Total cell extracts were resolved on a SDS polyacrylamide gel, blotted on a Hybond P PVDF membrane (G&E Healthcare, UK). Membranes were blocked with PBST 5% non fat dry milk, incubated with primary antibodies for 2 h at room temperature, washed and hybridized for 1 h at room temperature using the appropriate horseradish peroxidase-conjugated secondary antibody (rabbit and mouse, BioRad, Hercules, Calif., USA). Detection was performed with the ECL chemiluminescence kit (Perkin Elmer, Waltham, Mass., USA).
anti-Sirt-1 (Abcam, Cambridge, United Kingdom; 1/500 dilution), anti-β actin (Sigma, St Louis, Minn., USA; 1/5000 dilution), were used.
The human primary keratinocytes described in Example 1 are used in this example. […]

[2] = tested on: proliferating keratinocytes; test: Proliferation by BrdU incorporation (Click-iT EdU flow cytometry) after miR over-expression; assay type: cell-based; details: over-expression in proliferating human primary keratinocytes
Method: (§3) The human primary keratinocytes described in Example 1 are used in this example. Human primary keratinocytes were cultured in EpiLife medium with HKGS growth supplements (Cascade). […] 16 hrs after transfection, the medium was removed and replaced with fresh medium.
Methods used to evaluate cell proliferation are generally based on incorporation of bromodeoxyuridine (BrdU) during DNA synthesis. The Click-iT™ EdU flow cytometry assay kit is a novel alternative to BrdU assay (Molecular Probes, Eugene, Oreg., USA). […] Briefly, cells were incubated with EdU for 4 hrs. After incubation, samples were fixed, permeabilized and stained according to the manufacturer's protocol. Cell cycle was analysed using a FACSCalibur flow cytometer (BD Biosciences, San Jose, Calif., USA). Fifteen thousand events were evaluated using the Cell Quest (BD) and Modfit LT (Verity Software; BD) programs.

[3] = tested on: proliferating keratinocytes; test: Senescence-associated β-galactosidase staining after miR over-expression; assay type: cell-based; details: over-expression in proliferating human primary keratinocytes
Method: as §3
Cells were plated in 6-well culture plates, washed with PBS, and fixed with 2% formaldehyde/0.2% glutaraldehyde in PBS for 5 minutes. After another washing step with PBS, cells were incubated with β-galactosidase staining solution (150 mmol/L NaCl, 2 mmol/L MgCl2, 5 mmol/L potassium ferricyanide, 5 mmol/L potassium ferrocyanide, 40 mmol/L citric acid, 12 mmol/L sodium phosphate, pH 6.0, containing 1 mg/mL 5-bromo-4-chloro-3-indolyl-β-Dgalactoside [X-gal]) for 24 hours at 37° C. The reaction was stopped by replacing the staining solution with 70% glycerol.

Mir 130a = test: Screening of active compounds: miR-130a expression by real time PCR in keratinocytes; assay type: cell-based, human; details: 48 hours
Method: (§4) Neonatal Human Primary Epidermal Keratinocytes (Hekn, Cascade, Invitrogen, Carlsbad, Calif., USA) were cultured in EpiLife medium added with HKGS growth supplements (Cascade). Cells were constantly kept subconfluent in order to avoid triggering of a differentiation process. Cells were passaged usually once a week, at each passage the harvested cells number and seeded cell number were recorded in order to calculate the population doublings occurring between passages and the population doubling time. At passage 2 300.000 keratinocytes were plated in 60 mm dishes. The day after the cells were treated with the compounds at the indicated concentration for 48 hours without changing of the media. Cells were collected by scraping in medium. Cells were centrifuged at 800 g for 5 min and RNA was extracted.
Total RNA from cells was isolated using mirVana mirRNA Isolation Kit (Ambion) by following the manufacturer's protocol for total RNA extraction. Total RNA was quantified using a NanoDrop Spectophotometer (Thermo Scientific, Delaware, USA) and RNA quality was controlled on an agarose gel. For microRNA detection, RNA was reverse transcribed using TaqMan MicroRNA Reverse Transcription kit and qRT-PCR was performed with TaqMan universal master mix (Applied Biosystem) and specific primers for miR-130a, -138, -181a and -191. U18 was used as an internal control (Applied Biosystem). The expression of each gene and miR was defined from the threshold cycle (Ct), and relative expression levels were calculated by using the 2-ΔΔCt method after normalization with reference to the expression of the housekeeping gene U18.
The following compounds were tested according to the process of the invention, and the following results were obtained: […]

Mir 181a = test: Screening of active compounds: miR-181a expression by real time PCR in keratinocytes; assay type: cell-based, human; details: 48 hours
Method: as §4, with “extracted. Total RNA from cells was isolated using […] Isolation Kit (Ambion) by following the manufacturer's protocol for total RNA extraction. Total RNA was quantified using a NanoDrop Spectophotometer (Thermo Scientific, Delaware, USA) and RNA quality was controlled on an agarose gel. […] The expression of each gene and miR was defined from the threshold cycle (Ct), and relative expression levels were calculated by using the 2-ΔΔCt method after normalization with reference to the expression of the housekeeping gene U18. […]” for “extracted.”

Mir 191 = test: Screening of active compounds: miR-191 expression by real time PCR in keratinocytes; assay type: cell-based, human; details: 48 hours, compound at 6. 10-5%
Method: as §4
Total RNA from cells was isolated using mirVana mirRNA Isolation Kit (Ambion) by following the manufacturer's protocol for total RNA extraction. Total RNA was quantified using a NanoDrop Spectophotometer (Thermo Scientific, Delaware, USA) and RNA quality was controlled on an agarose gel. […] The expression of each gene and miR was defined from the threshold cycle (Ct), and relative expression levels were calculated by using the 2-ΔΔCt method after normalization with reference to the expression of the housekeeping gene U18. […]

CDK6 3′UTR wt = test: Luciferase reporter assay, CDK6 3′UTR wt, HEK 293E cells; assay type: cell-based; details: CDK6 3′UTR wt reporter, 24 hours after transfection
Method: as §1, with “vectors” for “vectors (i.e. with Sirt-1 3′UTR wt or Sirt-1 3′UTR miR-138 del),”, “pre-miR-191” for “pre-miR-138”

CDK6 protein = test: Western blot of CDK6 in transfected human keratinocytes; assay type: cell-based; details: versus scrambled sequence (Ctrl)
Method: The human primary keratinocytes described in Example 1 are used in this example. Human primary keratinocytes were cultured in EpiLife medium with HKGS growth supplements (Cascade) and treated with CaCl2 1.2 mM in order to induce the differentiation process. Differentiated cells were harvested after 7 days of treatment for microRNA levels analysis. Human primary keratinocytes were transfected with human pre-miR-191, anti-miR-191 and Cy3-labeled negative control (Ambion, Texas, USA) using the SiPORT neoFX transfection agent (Ambion) according to manufacturer protocols. 16 hrs after transfection, the medium was removed and replaced with fresh medium.
as §2
Polyclonal anti-CDK-6 (Santa Cruz, sc-177, dilution 1:2000), anti-β actin (Sigma, St Louis, Minn., USA; 1/5000 dilution), were used.

## pre-miR-181a: human pre-miR-181a (Ambion) transfected to over-express miR-181a (SEQ ID No. 3) [reference compound]
Sirt-1 3′UTR wt
  luciferase activity: 0.648±0.1 fold over control
[1]
  luciferase activity: 0.93±0.09 fold over control
SirT1 protein
  SirT1 protein level (Western blot): markedly diminished
[2]; listed as miR181a
  proliferation as evaluated by BrdU incorporation: significantly diminished
[2]; listed as miR-181a
  proliferation as evaluated by BrdU incorporation: strong effect on inhibition of proliferation
[3]; listed as miR-181a
  senescence as evaluated by SA-β-galactosidase staining: sufficient per se to induce senescence; also recorded: significantly increase

## COC(=O)C1Cc2cc(OC(C)=O)c(OC(C)=O)cc2N1C(C)=O (centres unmarked) [Tryacetyl-leukodopachrome methyl ester]
Mir 130a; compound at 10-3%
  inhibition of Mir 130a expression: 20 (10-3%)

## CCCCC[C@H](O)CC(=O)CCc1ccc(O)c(OC)c1 [Gingerol 6]
Mir 130a; compound at 6. 10-5%
  inhibition of Mir 130a expression: >20 (37%)
Mir 181a; compound at 6. 10-5%
  inhibition of Mir 181a expression: >20 (29%)
Mir 191
  inhibition of Mir 191 expression: >20 (24%)

## Oc1ccc(C=Cc2cc(O)cc(O)c2)cc1 [Resveratrol]
Mir 130a; compound at 4. 10-4%
  inhibition of Mir 130a expression: >20 (25%)
Mir 181a; compound at 4. 10-4%
  inhibition of Mir 181a expression: >20 (21%)

B1: pre-miR-191: human pre-miR-191 (Ambion) transfected to over-express miR-191 (SEQ ID No. 4) (nucleic acid)
chain: CGGCUGGACAGCGGGCAACGGAAUCCCAAAAGCAGCUGUUGUCUCCAGAGCAUUCCAGCUGCGCUUGGAUUUCGUCCCCUGCUCUCCUGCCU
modifications: precursor form, further chemistry not given here
CDK6 3′UTR wt
  luciferase activity: 0.78±0.1 fold over control
CDK6 protein
  CDK6 protein level (Western blot): markedly diminished
[2]; listed as miR191
  proliferation as evaluated by BrdU incorporation: significantly diminished
[2]; listed as miR-191
  proliferation as evaluated by BrdU incorporation: strong effect on inhibition of proliferation
[3]; listed as miR-191
  senescence as evaluated by SA-β-galactosidase staining: significantly increase; also recorded: sufficient per se to induce senescence
